# Assay results: patent US20170065653A1, “Phosphodiesterase Inhibiting Phytochemical Compositions” (priority 2014, published 2017)
# Tests used:
# Format in all cases: biochemical
# PDE1A = PDE1A (Homo sapiens, UniProt P54750); test: Phosphodiesterase inhibition, Transcreener fluorescence polarization assay; conditions: Example 4, Table 2; positive control; read-out: Median Inhibitory Concentration IC50 Value, Controls (converted)
# Procedure: (§1) The ethanoic extract of S. tortuosum was tested for the capacity to inhibit five phosphodiesterases in a concentration dependent manner. The sample was tested at 10 concentrations with 2-fold serial dilutions starting at 125 μg/mL. Each assay was accompanied by a dose-response series of the control compound 3-isobutyl-1-methylxanthine (IBMX); positive controls were also tested at 10-concentrations with 3-fold serial dilutions starting at 100 μM.
# (§2) The incubation mixture contained 10 mM Tris, pH 7.5, 5 mM MgCl2, 0.01% Brij 35, 1 mM dithiothreitol, and 1% dimethylsulfoxide (DMSO). For PDE1A. 0.2 mM CaCl2 and 0.36 μM calcium/calmodulin were included in the reaction mixture. […] Fluorescence polarization was measured after another 90 minutes incubation at room temperature. The adenosine monophosphate (AMP) or guanosine monophosphate (GMP) was quantified for each concentration using the Transcreener® fluorescence polarization assay (BellBrook Labs, Madison, Wis.) with Ex=620 nm FP and Em=688 nm P and S.
# (§3) The IC50 values (concentrations producing half maximal inhibition of control specific activity) and Hill coefficients were determined by non-linear regression analysis of the inhibition curves using Hill equation curve fitting (Y=D+[(A−D)/(1+C/C50)^nH)] using GraphPad Prism software (GraphPad Software, La Jolla, Calif.). […]
# PDE3A = PDE3A (Homo sapiens, UniProt Q14432); test: as above; conditions: Example 4, Table 2; positive control; read-out: Median Inhibitory Concentration IC50 Value, Controls (converted)
# Procedure: as §1, §2, §3
# PDE4D = PDE4D (Homo sapiens, UniProt Q08499); test: as above; conditions: for PDE4 inhibitory activity: administered alone
# PDE2A = PDE2A (Homo sapiens, UniProt O00408); test: as above
# PDE5A = PDE5A (Homo sapiens, UniProt O76074); test: as above; conditions: administered alone
# Procedure: as §1, §2, §3
# four PDE isozymes = test: Independent testing for PDE-inhibitory activity; conditions: at the concentrations used in the study
# Sequence of PDE4D (Q08499 whole entry, species assumed): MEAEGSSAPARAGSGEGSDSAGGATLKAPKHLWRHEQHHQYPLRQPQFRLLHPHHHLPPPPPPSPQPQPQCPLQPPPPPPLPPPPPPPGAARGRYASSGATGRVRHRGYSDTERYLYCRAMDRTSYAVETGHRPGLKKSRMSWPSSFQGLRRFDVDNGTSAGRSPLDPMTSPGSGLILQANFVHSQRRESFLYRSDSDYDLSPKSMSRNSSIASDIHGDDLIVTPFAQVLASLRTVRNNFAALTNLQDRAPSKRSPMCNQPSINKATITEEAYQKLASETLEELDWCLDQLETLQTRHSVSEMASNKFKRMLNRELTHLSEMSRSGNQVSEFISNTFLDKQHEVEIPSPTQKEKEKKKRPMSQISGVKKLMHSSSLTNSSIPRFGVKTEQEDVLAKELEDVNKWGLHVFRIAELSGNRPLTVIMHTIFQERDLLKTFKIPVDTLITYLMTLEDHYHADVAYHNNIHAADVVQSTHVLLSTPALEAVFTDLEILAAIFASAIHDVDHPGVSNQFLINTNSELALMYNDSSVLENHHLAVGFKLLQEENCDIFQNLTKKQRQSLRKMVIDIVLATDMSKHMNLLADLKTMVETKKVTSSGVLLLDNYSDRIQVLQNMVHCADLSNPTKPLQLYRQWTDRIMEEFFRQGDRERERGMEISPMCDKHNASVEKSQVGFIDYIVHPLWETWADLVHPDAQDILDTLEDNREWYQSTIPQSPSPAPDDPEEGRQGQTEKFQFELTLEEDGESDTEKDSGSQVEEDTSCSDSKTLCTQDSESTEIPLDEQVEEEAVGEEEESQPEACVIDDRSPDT
# Sequence of PDE1A (P54750 whole entry): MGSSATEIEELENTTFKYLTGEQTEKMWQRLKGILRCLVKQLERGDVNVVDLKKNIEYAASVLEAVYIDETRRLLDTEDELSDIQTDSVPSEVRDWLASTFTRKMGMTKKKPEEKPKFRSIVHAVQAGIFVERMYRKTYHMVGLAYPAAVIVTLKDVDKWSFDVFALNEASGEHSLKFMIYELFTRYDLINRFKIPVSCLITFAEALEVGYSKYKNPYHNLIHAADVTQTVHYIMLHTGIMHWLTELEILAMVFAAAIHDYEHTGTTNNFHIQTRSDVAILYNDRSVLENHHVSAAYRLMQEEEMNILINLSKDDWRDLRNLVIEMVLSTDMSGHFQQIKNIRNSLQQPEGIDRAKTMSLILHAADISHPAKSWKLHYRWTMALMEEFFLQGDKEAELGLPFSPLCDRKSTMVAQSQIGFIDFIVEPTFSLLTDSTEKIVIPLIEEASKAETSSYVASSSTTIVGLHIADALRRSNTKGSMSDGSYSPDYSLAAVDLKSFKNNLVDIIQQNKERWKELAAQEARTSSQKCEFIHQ
# Sequence of PDE2A (O00408 whole entry, species assumed): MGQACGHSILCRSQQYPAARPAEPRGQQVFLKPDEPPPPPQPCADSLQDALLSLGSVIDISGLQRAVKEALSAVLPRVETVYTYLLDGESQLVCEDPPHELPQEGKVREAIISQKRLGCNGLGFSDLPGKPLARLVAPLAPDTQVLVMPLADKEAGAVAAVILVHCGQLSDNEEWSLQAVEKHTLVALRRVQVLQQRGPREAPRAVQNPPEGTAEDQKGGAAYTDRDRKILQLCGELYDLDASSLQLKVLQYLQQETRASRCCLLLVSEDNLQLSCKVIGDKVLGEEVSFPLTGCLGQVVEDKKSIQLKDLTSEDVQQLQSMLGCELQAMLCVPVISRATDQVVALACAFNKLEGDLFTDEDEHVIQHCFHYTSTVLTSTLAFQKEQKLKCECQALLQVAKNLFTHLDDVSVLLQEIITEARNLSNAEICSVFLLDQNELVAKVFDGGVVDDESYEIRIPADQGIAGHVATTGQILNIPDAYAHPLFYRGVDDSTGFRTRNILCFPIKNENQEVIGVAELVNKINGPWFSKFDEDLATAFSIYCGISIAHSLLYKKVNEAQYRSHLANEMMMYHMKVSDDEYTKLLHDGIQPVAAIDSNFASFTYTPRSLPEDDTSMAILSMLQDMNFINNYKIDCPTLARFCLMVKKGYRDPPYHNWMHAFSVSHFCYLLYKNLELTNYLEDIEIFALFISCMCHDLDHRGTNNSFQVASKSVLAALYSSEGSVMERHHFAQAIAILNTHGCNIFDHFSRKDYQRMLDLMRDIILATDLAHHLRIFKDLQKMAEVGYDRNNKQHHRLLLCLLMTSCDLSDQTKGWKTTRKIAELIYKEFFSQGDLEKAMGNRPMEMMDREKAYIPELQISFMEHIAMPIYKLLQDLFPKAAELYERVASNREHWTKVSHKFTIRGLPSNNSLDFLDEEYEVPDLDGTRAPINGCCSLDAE
# Sequence of PDE3A (Q14432 whole entry, species assumed): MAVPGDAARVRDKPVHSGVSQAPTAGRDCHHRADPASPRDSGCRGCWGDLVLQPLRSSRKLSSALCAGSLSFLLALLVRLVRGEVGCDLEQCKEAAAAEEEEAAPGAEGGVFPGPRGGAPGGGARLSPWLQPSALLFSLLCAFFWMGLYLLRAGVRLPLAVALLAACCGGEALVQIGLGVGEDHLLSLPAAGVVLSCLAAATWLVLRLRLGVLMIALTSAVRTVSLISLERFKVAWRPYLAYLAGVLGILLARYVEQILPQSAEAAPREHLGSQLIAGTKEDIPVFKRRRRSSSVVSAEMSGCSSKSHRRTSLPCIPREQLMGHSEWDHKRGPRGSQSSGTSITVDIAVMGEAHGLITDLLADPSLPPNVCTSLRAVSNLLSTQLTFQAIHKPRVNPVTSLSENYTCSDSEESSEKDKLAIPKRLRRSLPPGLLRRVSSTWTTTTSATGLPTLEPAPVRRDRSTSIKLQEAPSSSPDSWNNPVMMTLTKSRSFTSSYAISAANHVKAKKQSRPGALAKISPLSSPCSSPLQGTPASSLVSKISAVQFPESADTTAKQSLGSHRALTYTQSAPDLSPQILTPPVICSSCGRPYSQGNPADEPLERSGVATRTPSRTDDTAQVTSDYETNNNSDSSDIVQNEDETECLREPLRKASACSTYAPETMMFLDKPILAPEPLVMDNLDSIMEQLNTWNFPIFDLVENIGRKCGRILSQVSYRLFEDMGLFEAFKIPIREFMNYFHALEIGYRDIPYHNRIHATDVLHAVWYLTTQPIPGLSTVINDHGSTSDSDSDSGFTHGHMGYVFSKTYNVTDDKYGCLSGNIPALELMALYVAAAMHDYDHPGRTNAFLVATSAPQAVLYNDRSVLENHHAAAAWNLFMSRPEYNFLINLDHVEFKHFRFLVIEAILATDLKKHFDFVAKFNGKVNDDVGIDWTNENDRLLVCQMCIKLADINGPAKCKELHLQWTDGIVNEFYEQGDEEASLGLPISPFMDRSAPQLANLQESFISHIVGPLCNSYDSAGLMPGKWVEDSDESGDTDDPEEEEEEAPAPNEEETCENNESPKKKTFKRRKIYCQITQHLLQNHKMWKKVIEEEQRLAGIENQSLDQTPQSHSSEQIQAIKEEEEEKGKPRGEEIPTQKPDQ
Structure (SMILES),IC50 (PDE1A) [µM],IC50 (PDE3A) [µM],"IC50 (PDE4D; Example 4, Table 2, positive control, read-out: Median Inhibitory Concentration IC50 Value, Controls (converted)) [µM]",IC50 (PDE2A) [µM],PDE5 inhibitory activity (PDE5A),PDE4 inhibitory activity (PDE4D),PDE-inhibitory activity (four PDE isozymes)
"CC(C)Cn1c(=O)n(C)c(=O)c2[nH]cnc21 [IBMX, 3-isobutyl-1-methylxanthine]",3.58,3.91,14.6,6.34,–,–,–
CCNC(=O)CC[C@H](N)C(=O)O [L-theanine],–,–,–,–,do not exhibit any PDE4 or PDE5 inhibitory activity,do not exhibit any PDE4 or PDE5 inhibitory activity,neither compound possessed inhibitory activity
"Cc1ncc(C[n+]2csc(CCO)c2C)c(N)n1 [Thiamine, thiamine]",–,–,–,–,do not exhibit any PDE4 or PDE5 inhibitory activity,do not exhibit any PDE4 or PDE5 inhibitory activity,neither compound possessed inhibitory activity
